Measurements published in ChEMBL document CHEMBL4477232, “Synthesis and evaluation of novel 1,2,3-triazole-based acetylcholinesterase inhibitors with neuroprotective activity” (Bioorg Med Chem Lett, 2016).
Calls of active or inactive are those of the source. The calls are words filed in the database; no cut-off is given here.

What was measured:
Acetylcholinesterase = Acetylcholinesterase (Electrophorus electricus, UniProt O42275); assay: Inhibition of electric eel AChE preincubated for 6 mins followed by addition of acetylthiocholine iodide by Ellman's method
Cholinesterase = Cholinesterase (Equus caballus, UniProt P81908); assay: Inhibition of equine serum BuChE preincubated for 6 mins followed by addition of S-butyrylthiocholine iodide by Ellman's method
[1] = Selectivity ratio of IC50 for equine serum BuChE to IC50 for electric eel AChE
SH-SY5Y [2] = assay: Neuroprotective activity against amyloid beta (25 to 35 residues)-induced cell damage in human SH-SY5Y cells assessed as cell viability at 10 uM preincubated for 2 hrs followed by amyloid beta (25 to 35 residues) addition measured after 24 hrs by MTT assay (reference value: 62.3 %); type: functional; settings: for viability at 10 µM: read-out: Activity
SH-SY5Y [3] = assay: Neuroprotective activity against amyloid beta (25 to 35 residues)-induced cell damage in human SH-SY5Y cells assessed as recovery of cell viability at 10 uM preincubated for 2 hrs followed by amyloid beta (25 to 35 residues) addition measured after 24 hrs by MTT assay; type: functional
SH-SY5Y [4] = assay: Neuroprotective activity against amyloid beta (25 to 35 residues)-induced cell damage in human SH-SY5Y cells assessed as cell viability at 1 uM preincubated for 2 hrs followed by amyloid beta (25 to 35 residues) addition measured after 24 hrs by MTT assay (reference value: 62.3 %); type: functional; settings: for viability at 1 µM: read-out: Activity
SH-SY5Y [5] = assay: Neuroprotective activity against amyloid beta (25 to 35 residues)-induced cell damage in human SH-SY5Y cells assessed as recovery of cell viability at 1 uM preincubated for 2 hrs followed by amyloid beta (25 to 35 residues) addition measured after 24 hrs by MTT assay; type: functional
HaCaT = assay: Cytotoxicity against human HaCaT assessed as cell viability upto 400 uM after 24 hrs by MTT assay relative to control; type: cell-based
NIH3T3 = assay: Cytotoxicity against mouse NIH/3T3 assessed as cell viability upto 400 uM after 24 hrs by MTT assay relative to control; type: cell-based; settings: nih3t3, 24 h

Acetylcholinesterase, sequence (O42275 whole entry): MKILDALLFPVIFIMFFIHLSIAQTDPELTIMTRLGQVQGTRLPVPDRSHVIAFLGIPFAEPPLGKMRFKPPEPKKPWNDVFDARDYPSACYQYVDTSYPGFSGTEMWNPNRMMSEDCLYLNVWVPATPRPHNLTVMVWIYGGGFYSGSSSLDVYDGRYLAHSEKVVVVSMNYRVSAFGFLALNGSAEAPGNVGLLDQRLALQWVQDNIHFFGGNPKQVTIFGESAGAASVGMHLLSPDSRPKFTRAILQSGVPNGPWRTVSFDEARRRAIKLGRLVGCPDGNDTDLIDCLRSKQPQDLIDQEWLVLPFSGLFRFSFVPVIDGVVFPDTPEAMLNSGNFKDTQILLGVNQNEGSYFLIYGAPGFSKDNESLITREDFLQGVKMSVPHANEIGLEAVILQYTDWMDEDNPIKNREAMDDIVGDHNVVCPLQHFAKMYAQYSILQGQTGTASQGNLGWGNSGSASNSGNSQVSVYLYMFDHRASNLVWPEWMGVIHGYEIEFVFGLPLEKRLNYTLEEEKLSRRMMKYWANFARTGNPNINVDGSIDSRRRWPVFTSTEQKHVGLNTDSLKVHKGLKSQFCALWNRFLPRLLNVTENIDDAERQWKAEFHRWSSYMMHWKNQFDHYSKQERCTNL
Cholinesterase, sequence (P81908 whole entry): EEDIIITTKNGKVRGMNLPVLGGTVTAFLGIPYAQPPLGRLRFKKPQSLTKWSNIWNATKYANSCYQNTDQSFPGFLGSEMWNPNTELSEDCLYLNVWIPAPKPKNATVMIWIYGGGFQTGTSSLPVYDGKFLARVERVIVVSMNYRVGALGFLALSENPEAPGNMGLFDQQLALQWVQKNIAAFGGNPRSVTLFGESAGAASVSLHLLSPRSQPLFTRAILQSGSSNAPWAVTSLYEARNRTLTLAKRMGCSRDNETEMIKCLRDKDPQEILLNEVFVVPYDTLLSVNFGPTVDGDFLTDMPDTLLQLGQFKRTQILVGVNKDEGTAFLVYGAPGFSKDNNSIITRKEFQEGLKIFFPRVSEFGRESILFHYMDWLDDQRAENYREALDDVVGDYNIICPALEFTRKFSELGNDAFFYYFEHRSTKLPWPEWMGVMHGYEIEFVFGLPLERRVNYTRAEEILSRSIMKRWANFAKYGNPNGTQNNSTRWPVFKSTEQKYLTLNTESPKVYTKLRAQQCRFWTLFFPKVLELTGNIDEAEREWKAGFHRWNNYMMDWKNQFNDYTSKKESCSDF

Row | SMILES | IC50 (Acetylcholinesterase) | IC50 (Cholinesterase) | Ratio IC50 [1] | other results
1 | COc1ccc(Br)c(Cn2cc(-c3ccc(C)c(C(=O)NCCN4CCOCC4)c3)nn2)c1 | 40.8 µM | 50.8 µM | 1.2 | –
2 | Cc1ccc(-c2cn(Cc3ccc(Br)cc3)nn2)cc1C(=O)NCCN1CCOCC1 | 20.5 µM | 45.6 µM | 2.2 | –
3 | Cc1ccc(-c2cn(C)nn2)cc1C(=O)NCCN1CCOCC1 | 45.2 µM | 68.1 µM | 1.5 | –
4 | Cc1ccc(-c2cn(Cc3ccc([N+](=O)[O-])cc3)nn2)cc1C(=O)NCCN1CCOCC1 | 20.4 µM | 60.5 µM | 2.9 | –
5 | C#Cc1ccc(C)c(C(=O)NCCN2CCOCC2)c1 | > 100 µM | – | – | –
6 | Cc1ccc(-c2cn(Cc3ccc(C#N)cc3)nn2)cc1C(=O)NCCN1CCOCC1 | 12.1 µM | 92.8 µM | 7.6 | viability at 10 µM (SH-SY5Y [2]): 78.9%; Activity (SH-SY5Y [3]): 16.6%; Activity (SH-SY5Y [4]): inactive; Activity (SH-SY5Y [5]): inactive; Activity (HaCaT): Non-Toxic; Activity (NIH3T3): Non-Toxic
7 | Cc1ccc(-c2cn(Cc3ccc(OC(F)(F)F)cc3)nn2)cc1C(=O)NCCN1CCOCC1 | 30.2 µM | 60.2 µM | 2 | –
8 | Cc1ccc(-c2cn(Cc3cccc(Br)c3)nn2)cc1C(=O)NCCN1CCOCC1 | 28.4 µM | 40.3 µM | 2 | –
9 | O=C(O[C@@H]1Cc2c(O)cc(O)cc2O[C@@H]1c1cc(O)c(O)c(O)c1)c1cc(O)c(O)c(O)c1 [EPIGALOCATECHIN GALLATE] | – | – | – | viability at 10 µM (SH-SY5Y [2]): 95.7%; Activity (SH-SY5Y [3]): 33.4%
10 | Cc1ccc(-c2cn(Cc3cccc(Cl)c3)nn2)cc1C(=O)NCCN1CCOCC1 | 32.6 µM | 36.3 µM | 1.1 | –
11 | Cc1ccc(-c2cn(Cc3ccccc3Cl)nn2)cc1C(=O)NCCN1CCOCC1 | 31.3 µM | 34.5 µM | 1.1 | –
12 | Cc1ccc(-c2cn(Cc3cccc(F)c3)nn2)cc1C(=O)NCCN1CCOCC1 | 30.1 µM | 60.8 µM | 1.2 | –
13 | Cc1ccc(-c2cn(Cc3ccccc3F)nn2)cc1C(=O)NCCN1CCOCC1 | 39.3 µM | 47.2 µM | 2 | –
14 | Cc1cc(F)ccc1Cn1cc(-c2ccc(C)c(C(=O)NCCN3CCOCC3)c2)nn1 | 37.6 µM | 61 µM | 1.6 | –
15 | Cc1ccc(-c2cn(Cc3ccc(F)c(F)c3)nn2)cc1C(=O)NCCN1CCOCC1 | 15.4 µM | 95.4 µM | 6.2 | viability at 10 µM (SH-SY5Y [2]): 89.4%; Activity (SH-SY5Y [3]): 27.1%; viability at 1 µM (SH-SY5Y [4]): 70.3%; Activity (SH-SY5Y [5]): 8%; Activity (HaCaT): Non-Toxic; Activity (NIH3T3): Non-Toxic
16 | Cc1ccc(-c2cn(Cc3ccc(F)c([N+](=O)[O-])c3)nn2)cc1C(=O)NCCN1CCOCC1 | 30.1 µM | 34.8 µM | 1.2 | –
17 | Cc1ccc(-c2cn(Cc3ccc(F)cc3F)nn2)cc1C(=O)NCCN1CCOCC1 | 24.4 µM | 89.6 µM | 3.7 | –
18 | Cc1ccc(-c2cn(Cc3ccc(F)cc3Cl)nn2)cc1C(=O)NCCN1CCOCC1 | 10.4 µM | 68.9 µM | 6.6 | Activity (SH-SY5Y [2]): inactive; Activity (SH-SY5Y [3]): inactive
19 | Cc1cc(C)cc(Cn2cc(-c3ccc(C)c(C(=O)NCCN4CCOCC4)c3)nn2)c1 | 64.2 µM | 56.2 µM | 0.9 | –
20 | Cc1ccc(-c2cn(Cc3ccc(F)cc3Br)nn2)cc1C(=O)NCCN1CCOCC1 | 31.4 µM | 70.8 µM | 2.3 | –
21 | Cc1ccc(-c2cn(Cc3ccccc3C(F)(F)F)nn2)cc1C(=O)NCCN1CCOCC1 | 34.1 µM | 45.1 µM | 1.3 | –
22 | Cc1ccc(-c2cn(Cc3ccc4ccccc4c3)nn2)cc1C(=O)NCCN1CCOCC1 | 7.23 µM | 90.8 µM | 12.6 | viability at 10 µM (SH-SY5Y [2]): 96.5%; Activity (SH-SY5Y [3]): 34.2%; viability at 1 µM (SH-SY5Y [4]): 77.9%; Activity (SH-SY5Y [5]): 15.6%; Activity (HaCaT): Non-Toxic; Activity (NIH3T3): Non-Toxic
23 | Cc1ccc(-c2cn(Cc3ccc(S(N)(=O)=O)cc3)nn2)cc1C(=O)NCCN1CCOCC1 | 30.3 µM | 45.5 µM | 1.5 | –
24 | COC(=O)c1ccc(Cn2cc(-c3ccc(C)c(C(=O)NCCN4CCOCC4)c3)nn2)cc1 | 38.4 µM | 67.8 µM | 1.8 | –
25 | Cc1ccc(Cn2cc(-c3ccc(C)c(C(=O)NCCN4CCOCC4)c3)nn2)cc1 | 60.1 µM | 83.1 µM | 1.4 | –
26 | COC(=O)/C=C/c1ccc(Cn2cc(-c3ccc(C)c(C(=O)NCCN4CCOCC4)c3)nn2)cc1 | 44.7 µM | 90.9 µM | 2 | –
27 | Cc1ccc(-c2cn(Cc3ccc(F)cc3)nn2)cc1C(=O)NCCN1CCOCC1 | 21.2 µM | 43.7 µM | 2.1 | –
28 | Cc1ccc(-c2cn(Cc3ccc(C(F)(F)F)cc3)nn2)cc1C(=O)NCCN1CCOCC1 | 27.4 µM | – | – | viability at 10 µM (SH-SY5Y [2]): 85.2%; Activity (SH-SY5Y [3]): 22.9%; Activity (SH-SY5Y [4]): inactive; Activity (SH-SY5Y [5]): inactive
29 | Cc1ccc(-c2cn(Cc3cccc4ccccc34)nn2)cc1C(=O)NCCN1CCOCC1 | 46.2 µM | 72.9 µM | 1.58 | –
30 | Cc1ccc(-c2cn(Cc3ccccc3Br)nn2)cc1C(=O)NCCN1CCOCC1 | 35.2 µM | 78.6 µM | 2.2 | –
